One block for each compound: values may come before it. Calls of active or inactive are those of the source. No cut-off for these calls is given here.
What was measured:
Rattus norvegicus [1] = test: Antihypertensive activity in rat/human renin double transgenic rat model assessed as reduction in mean arterial pressure at 10 mg/kg, po after 17 hrs; format: functional, organism-based; design: dose 10 mg/kg; settings: Artery
[2] = Protein binding in rat plasma; format: ADME, cell-free; settings: read-out: PPB (converted)
Cathepsin E = biological target: T1, Cathepsin E (Homo sapiens, UniProt P14091); test: Inhibition of CathE (unknown origin)
T1 sequence (P14091 whole entry): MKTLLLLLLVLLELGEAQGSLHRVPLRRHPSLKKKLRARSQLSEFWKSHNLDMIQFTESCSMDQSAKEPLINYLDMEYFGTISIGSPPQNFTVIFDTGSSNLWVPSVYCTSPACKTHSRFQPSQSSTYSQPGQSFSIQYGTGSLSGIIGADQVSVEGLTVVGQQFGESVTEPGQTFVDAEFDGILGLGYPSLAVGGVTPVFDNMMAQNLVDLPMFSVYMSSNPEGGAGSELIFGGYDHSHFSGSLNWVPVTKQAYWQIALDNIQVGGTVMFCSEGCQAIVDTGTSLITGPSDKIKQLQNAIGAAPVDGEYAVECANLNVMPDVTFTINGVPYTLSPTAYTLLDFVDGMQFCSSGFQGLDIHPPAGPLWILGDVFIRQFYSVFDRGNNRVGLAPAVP

[3] = biological target: Sodium-dependent dopamine transporter (Homo sapiens) (UniProt Q01959); test: Inhibition of human dopamine transporter at 10 uM
Sodium-dependent dopamine transporter (Homo sapiens), sequence (Q01959 whole entry): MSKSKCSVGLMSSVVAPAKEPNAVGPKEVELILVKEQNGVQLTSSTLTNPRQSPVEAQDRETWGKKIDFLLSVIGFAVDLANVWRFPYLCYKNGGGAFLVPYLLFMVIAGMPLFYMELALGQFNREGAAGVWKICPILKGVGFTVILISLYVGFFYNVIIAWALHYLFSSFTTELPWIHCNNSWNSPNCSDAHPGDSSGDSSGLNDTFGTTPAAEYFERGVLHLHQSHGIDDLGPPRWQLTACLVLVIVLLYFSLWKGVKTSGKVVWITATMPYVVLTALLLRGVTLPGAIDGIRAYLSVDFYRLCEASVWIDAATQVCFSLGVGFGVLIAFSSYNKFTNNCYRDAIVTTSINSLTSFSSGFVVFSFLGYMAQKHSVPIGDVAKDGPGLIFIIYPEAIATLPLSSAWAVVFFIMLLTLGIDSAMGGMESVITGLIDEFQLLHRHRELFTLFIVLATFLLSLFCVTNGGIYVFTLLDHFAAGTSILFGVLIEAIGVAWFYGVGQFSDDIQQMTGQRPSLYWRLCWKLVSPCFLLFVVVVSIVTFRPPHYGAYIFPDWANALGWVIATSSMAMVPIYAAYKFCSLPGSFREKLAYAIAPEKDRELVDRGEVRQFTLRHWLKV

Homo sapiens [4] = organism: Homo sapiens; test: Inhibition of Na+ channel site 2 (unknown origin) at 10 uM
[5] = AUC in cynomolgus monkey at 3 mg/kg, po; format: ADME, organism-based, Macaca fascicularis; design: dose 3 mg/kg, route oral; settings: plasma
Beta-secretase 2 = biological target: T2, Beta-secretase 2 (Homo sapiens, UniProt Q9Y5Z0); test: Inhibition of BACE2 (unknown origin)
T2 sequence (Q9Y5Z0 whole entry): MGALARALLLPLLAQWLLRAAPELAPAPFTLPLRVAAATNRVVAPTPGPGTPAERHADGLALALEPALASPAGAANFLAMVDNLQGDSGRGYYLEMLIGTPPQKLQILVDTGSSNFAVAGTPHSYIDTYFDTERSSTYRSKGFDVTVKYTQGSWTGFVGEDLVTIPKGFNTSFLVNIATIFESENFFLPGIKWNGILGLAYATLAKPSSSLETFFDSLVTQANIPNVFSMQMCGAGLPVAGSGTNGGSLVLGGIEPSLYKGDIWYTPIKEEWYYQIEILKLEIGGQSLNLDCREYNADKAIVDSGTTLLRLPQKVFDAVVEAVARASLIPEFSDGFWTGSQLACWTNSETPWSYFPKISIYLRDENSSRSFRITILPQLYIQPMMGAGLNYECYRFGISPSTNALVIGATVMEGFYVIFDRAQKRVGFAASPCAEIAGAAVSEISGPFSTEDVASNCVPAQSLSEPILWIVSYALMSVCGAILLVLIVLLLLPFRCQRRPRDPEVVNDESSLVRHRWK

[6] = biological target: D(1A) dopamine receptor (Homo sapiens) (UniProt P21728); test: Inhibition of human D1 receptor at 10 uM
D(1A) dopamine receptor (Homo sapiens), sequence (P21728 whole entry): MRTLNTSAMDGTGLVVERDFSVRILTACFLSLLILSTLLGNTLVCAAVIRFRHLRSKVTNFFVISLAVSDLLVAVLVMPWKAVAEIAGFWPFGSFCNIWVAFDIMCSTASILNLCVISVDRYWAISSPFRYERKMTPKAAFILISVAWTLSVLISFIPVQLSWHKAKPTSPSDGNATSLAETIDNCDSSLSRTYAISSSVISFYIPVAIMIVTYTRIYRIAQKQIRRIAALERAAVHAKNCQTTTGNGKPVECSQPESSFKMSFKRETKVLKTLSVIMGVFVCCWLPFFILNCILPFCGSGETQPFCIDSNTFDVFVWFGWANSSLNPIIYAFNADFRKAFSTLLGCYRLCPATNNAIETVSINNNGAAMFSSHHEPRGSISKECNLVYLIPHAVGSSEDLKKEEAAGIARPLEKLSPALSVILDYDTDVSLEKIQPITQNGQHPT

[7] = biological target: T3, Nuclear receptor subfamily 1 group I member 2 (Homo sapiens, UniProt O75469); test: Inhibition of PXR (unknown origin); format: ADME
T3 sequence (O75469 whole entry): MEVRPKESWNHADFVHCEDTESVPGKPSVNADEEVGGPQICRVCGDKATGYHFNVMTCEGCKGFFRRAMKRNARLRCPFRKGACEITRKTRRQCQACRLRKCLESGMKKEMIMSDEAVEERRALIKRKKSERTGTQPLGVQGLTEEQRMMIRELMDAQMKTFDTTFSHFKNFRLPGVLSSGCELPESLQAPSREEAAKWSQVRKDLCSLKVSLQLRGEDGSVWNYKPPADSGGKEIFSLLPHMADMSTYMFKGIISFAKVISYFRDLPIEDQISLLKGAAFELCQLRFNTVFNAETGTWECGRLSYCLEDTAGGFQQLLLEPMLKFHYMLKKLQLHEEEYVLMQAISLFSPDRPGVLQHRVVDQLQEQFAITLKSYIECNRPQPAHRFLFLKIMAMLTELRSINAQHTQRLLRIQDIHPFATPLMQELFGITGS

[8] = AUC in dog at 3 mg/kg, po; format: ADME, organism-based, Canis lupus familiaris; design: dose 3 mg/kg, route oral; settings: plasma
[9] = biological target: Voltage-gated inwardly rectifying potassium channel KCNH2 (Homo sapiens, UniProt Q12809); test: Inhibition of human ERG by voltage clamp method
Voltage-gated inwardly rectifying potassium channel KCNH2, sequence (Q12809 whole entry): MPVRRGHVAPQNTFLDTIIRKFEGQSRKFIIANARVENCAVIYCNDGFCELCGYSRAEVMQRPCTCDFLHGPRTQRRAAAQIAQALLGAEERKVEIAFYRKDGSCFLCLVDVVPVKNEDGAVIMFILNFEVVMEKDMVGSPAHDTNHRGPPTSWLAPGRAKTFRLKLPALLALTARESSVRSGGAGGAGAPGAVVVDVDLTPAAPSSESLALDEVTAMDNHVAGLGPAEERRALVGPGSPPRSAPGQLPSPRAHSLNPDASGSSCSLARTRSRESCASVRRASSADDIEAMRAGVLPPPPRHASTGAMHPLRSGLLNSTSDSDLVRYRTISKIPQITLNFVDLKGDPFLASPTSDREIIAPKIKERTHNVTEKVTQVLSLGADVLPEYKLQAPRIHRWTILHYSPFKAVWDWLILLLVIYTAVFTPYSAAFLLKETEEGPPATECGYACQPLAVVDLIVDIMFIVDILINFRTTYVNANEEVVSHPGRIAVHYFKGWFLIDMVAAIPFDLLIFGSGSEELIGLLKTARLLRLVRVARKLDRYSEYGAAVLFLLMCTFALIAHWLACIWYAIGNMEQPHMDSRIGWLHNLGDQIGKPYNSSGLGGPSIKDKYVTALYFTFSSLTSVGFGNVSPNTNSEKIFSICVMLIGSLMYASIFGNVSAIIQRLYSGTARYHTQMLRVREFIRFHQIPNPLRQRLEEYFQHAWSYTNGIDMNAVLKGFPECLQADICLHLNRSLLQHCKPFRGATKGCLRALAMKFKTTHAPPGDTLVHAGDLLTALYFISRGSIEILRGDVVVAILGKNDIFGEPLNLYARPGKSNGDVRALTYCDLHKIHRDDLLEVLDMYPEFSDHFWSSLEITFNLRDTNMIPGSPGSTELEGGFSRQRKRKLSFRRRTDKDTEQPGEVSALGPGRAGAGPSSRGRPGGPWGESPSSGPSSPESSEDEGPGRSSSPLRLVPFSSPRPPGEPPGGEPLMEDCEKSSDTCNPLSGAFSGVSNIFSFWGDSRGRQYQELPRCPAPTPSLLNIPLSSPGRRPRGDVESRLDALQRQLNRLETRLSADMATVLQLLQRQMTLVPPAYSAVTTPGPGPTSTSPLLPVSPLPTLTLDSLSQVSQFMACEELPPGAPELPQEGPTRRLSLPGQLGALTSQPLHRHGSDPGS

Rattus norvegicus [10] = test: Antihypertensive activity in rat/human renin double transgenic rat model assessed as maximum reduction in mean arterial pressure at 10 mg/kg, po; format: functional, Artery
Rattus norvegicus [11] = test: Antihypertensive activity in rat/human renin double transgenic rat model assessed as reduction in mean arterial pressure at 10 mg/kg, po after 20 hrs; format: functional, organism-based; design: dose 10 mg/kg; settings: Artery
[12] = Fraction unbound in rat plasma; format: ADME, cell-free
[13] = AUC (0 to 6 hrs) in rat at 10 mg/kg, po; format: ADME, organism-based; design: time < 6 hr, dose 10 mg/kg, route oral; settings: plasma
Cathepsin D = Cathepsin D (Homo sapiens, UniProt P07339); test: Inhibition of CathD (unknown origin)
Cathepsin D, sequence (P07339 65-162 limits assumed): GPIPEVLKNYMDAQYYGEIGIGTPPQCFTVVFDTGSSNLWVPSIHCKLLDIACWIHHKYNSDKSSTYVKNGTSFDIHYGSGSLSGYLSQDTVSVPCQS
Cathepsin D, sequence (P07339 169-412 limits assumed): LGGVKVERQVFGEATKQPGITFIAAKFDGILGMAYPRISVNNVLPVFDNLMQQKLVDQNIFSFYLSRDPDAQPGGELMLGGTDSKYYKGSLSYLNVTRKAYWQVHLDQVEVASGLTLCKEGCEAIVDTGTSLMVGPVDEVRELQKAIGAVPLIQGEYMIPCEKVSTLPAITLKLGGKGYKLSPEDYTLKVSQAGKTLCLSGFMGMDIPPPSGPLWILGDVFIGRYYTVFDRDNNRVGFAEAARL

[14] = Protein binding in human plasma; format: ADME, cell-free; settings: read-out: PPB (converted)
Homo sapiens [15] = organism: Homo sapiens; test: Clearance in human assessed per million cells; format: ADME, cell-based
[16] = Oral bioavailability in dog at 3 mg/kg; format: ADME, organism-based, Canis lupus familiaris; settings: in vivo
[17] = Inhibition of pepsin (unknown origin); design: species or system Homo sapiens
[18] = Oral bioavailability in cynomolgus monkey at 3 mg/kg; format: ADME, organism-based, Macaca fascicularis; settings: in vivo
Renin = biological target: T4, Renin (Homo sapiens, UniProt P00797); test: Inhibition of renin (unknown origin)
T4 sequence (P00797 whole entry): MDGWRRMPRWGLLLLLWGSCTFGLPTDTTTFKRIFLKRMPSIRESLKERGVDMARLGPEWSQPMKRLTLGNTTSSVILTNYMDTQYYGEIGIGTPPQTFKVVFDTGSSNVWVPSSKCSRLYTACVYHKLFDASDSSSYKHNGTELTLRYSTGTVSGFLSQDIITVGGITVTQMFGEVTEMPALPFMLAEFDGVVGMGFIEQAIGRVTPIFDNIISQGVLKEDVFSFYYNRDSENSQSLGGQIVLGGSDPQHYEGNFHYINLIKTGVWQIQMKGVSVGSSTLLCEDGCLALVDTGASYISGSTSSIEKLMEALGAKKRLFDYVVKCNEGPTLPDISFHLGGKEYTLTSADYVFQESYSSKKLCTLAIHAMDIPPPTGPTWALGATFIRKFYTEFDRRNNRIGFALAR

[19] = Inhibition of CYP (unknown origin); format: ADME; settings: human
Beta-secretase 1 = Beta-secretase 1 (Homo sapiens, UniProt P56817); test: Inhibition of BACE1 (unknown origin)
Beta-secretase 1, sequence (P56817 whole entry): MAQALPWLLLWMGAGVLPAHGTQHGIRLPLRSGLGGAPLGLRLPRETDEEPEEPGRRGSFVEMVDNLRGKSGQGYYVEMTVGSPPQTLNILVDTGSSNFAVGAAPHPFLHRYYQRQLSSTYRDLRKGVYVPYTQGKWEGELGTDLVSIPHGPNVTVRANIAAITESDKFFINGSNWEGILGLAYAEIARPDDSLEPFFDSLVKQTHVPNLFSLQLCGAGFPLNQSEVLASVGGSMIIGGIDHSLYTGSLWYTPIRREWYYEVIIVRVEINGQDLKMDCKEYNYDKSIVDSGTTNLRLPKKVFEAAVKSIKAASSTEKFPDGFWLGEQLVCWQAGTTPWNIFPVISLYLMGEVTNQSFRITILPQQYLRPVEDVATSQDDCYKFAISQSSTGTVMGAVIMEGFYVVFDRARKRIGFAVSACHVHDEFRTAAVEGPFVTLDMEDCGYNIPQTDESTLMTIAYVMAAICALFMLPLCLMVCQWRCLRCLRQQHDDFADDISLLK

hERG (KCNH2) = hERG (KCNH2) (Homo sapiens, UniProt Q12809); test: Inhibition of human ERG at 10 uM
hERG (KCNH2), sequence (Q12809 whole entry): as the sequence (Q12809 whole entry) above

[20] = Permeability across human Caco2 cells; format: ADME, cell-based; settings: Caco-2, read-out: permeability
clinical = settings: human, in vivo, po

SMILES: CC(C)[C@]1(C)CC(=O)N(Cc2cc(F)cc(C(=O)N[C@@H](C)c3ccccc3)c2)C(=N)N1
Activity (Rattus norvegicus [1]): Active
fraction unbound [2]: 0.059
Ki (Cathepsin E): 1100 nM
inhibition [3]: 51%
inhibition (Homo sapiens [4]): 79%
AUC [5]: 1 µM·h
Ki (Beta-secretase 2): 480 nM
inhibition [6]: 64%
INH [7]: > 30 µM
AUC [8]: 3 µM·h
IC50 [9]: 9000 nM
Activity (Rattus norvegicus [10]): 66 mmHg
Activity (Rattus norvegicus [11]): Active
fraction unbound [12]: 0.059
AUC(0-t) at 6 h [13]: 6.52 µM·h
Ki (Cathepsin D): 180 nM
fraction unbound [14]: 0.058
CL (Homo sapiens [15]): 4 µL/min
bioavailability [16]: 38%
Ki [17]: > 10000 nM
bioavailability [18]: 9%
Ki (Renin): 0.6 nM
INH [19]: > 30 µM
Ki (Beta-secretase 1): > 10000 nM

SMILES: CC(C)[C@]1(C)CC(=O)N(Cc2ccnc(N3CC[C@H](c4ccccc4)C3)c2)C(=N)N1
AUC(0-t) at 6 h [13]: 0.595 µM·h
Ki (Renin): 15 nM
inhibition at 10 µM (hERG (KCNH2)): 72%

SMILES: CC(C)[C@]1(C)CC(=O)N(Cc2cccc(N3C[C@@H](c4ccccc4)CC3=O)c2)C(=N)N1
Papp [20]: 4.2 ×10⁻⁶ cm/s
AUC(0-t) at 6 h [13]: 2.04 µM·h
Ki (Renin): 44 nM

SMILES: CC(C)[C@]1(C)CC(=O)N(Cc2cccc(C(=O)N[C@H](C)c3ccccc3)c2)C(=N)N1
AUC(0-t) at 6 h [13]: 0.173 µM·h
Ki (Renin): 86 nM

SMILES: COCCCOc1cc(C[C@@H](C[C@H](N)[C@@H](O)C[C@H](C(=O)NCC(C)(C)C(N)=O)C(C)C)C(C)C)ccc1OC
bioavailability (clinical): 2.5%
Activity (Rattus norvegicus [10]): 43 mmHg

SMILES: CC(C)[C@]1(C)CC(=O)N(Cc2cccc(N3C[C@H](c4ccccc4)CC3=O)c2)C(=N)N1
Ki (Renin): 420 nM

SMILES: CC(C)[C@]1(C)CC(=O)N(Cc2cccc(C(=O)NCc3ccccc3)c2)C(=N)N1
Papp [20]: 0.09 ×10⁻⁶ cm/s
AUC(0-t) at 6 h [13]: 0.031 µM·h
Ki (Cathepsin D): 2700 nM
CL (Homo sapiens [15]): 3.7 µL/min
Ki (Renin): 56 nM
Ki (Beta-secretase 1): > 10000 nM

SMILES: CC(C)[C@]1(C)CC(=O)N(Cc2cccc(C(=O)N[C@@H](C)c3ccccc3)c2)C(=N)N1
AUC(0-t) at 6 h [13]: 0.405 µM·h
Ki (Renin): 2.2 nM

Second part, led by results:

AUC(0-t) at 6 h [13]: 2.44 µM·h
Ki (Renin): 6 nM
SMILES: CC(C)[C@]1(C)CC(=O)N(Cc2ccnc(N3C[C@@H](c4ccccc4)CC3=O)c2)C(=N)N1
inhibition at 10 µM (hERG (KCNH2)): 77%

Ki (Renin): 2 nM
SMILES: CC(C)[C@]1(C)CC(=O)N(Cc2cccc(N3CC(c4cccc(Cl)c4)CC3=O)c2)C(=N)N1 (stereo partly drawn)
inhibition at 10 µM (hERG (KCNH2)): 92%

IC50 (Renin): 0.5 nM
SMILES: CN[C@H](CNC(=O)N1CCC[C@@H]([C@@H](OCCNC(=O)OC)c2cccc(Cl)c2)C1)C[C@H]1CCCOC1 [VTP-27999]

AUC(0-t) at 6 h [13]: 0.049 µM·h
Ki (Cathepsin D): 19500 nM
Ki (Renin): 82 nM
Ki (Beta-secretase 1): 3820 nM
SMILES: C[C@@]1(c2ccc3sccc3c2)CC(=O)N(Cc2cccc(C(=O)NCc3ccccc3)c2)C(=N)N1

Papp [20]: 6.7 ×10⁻⁶ cm/s
AUC(0-t) at 6 h [13]: 2.25 µM·h
CL (Homo sapiens [15]): 7.6 µL/min
Ki (Renin): 19 nM
SMILES: CC(C)[C@]1(C)CC(=O)N(Cc2cc(F)cc(N3C[C@@H](c4ccccc4)CC3=O)c2)C(=N)N1
inhibition at 10 µM (hERG (KCNH2)): 85%

From ChEMBL document CHEMBL3400110, “Iminopyrimidinones: a novel pharmacophore for the development of orally active renin inhibitors” (Bioorg Med Chem Lett, 2015)
